Results as given in EPA's ToxRefDB 2.

Assays:
rat [1] = settings: Chronic toxicity, sprague dawley, Oral, Feed, dose end: 2 year, group: systemic
rat [2] = settings: Prenatal developmental toxicity study, wistar, Oral, Gavage/Intubation, dose end: 20 GD
rat [3] = settings: Prenatal developmental toxicity study, wistar, Oral, Feed, dose end: 21 GD
mouse [4] = settings: Subchronic oral toxicity in rodents, b6c3f1, Feed, dose end: 13 week, group: systemic
rat [5] = settings: Subchronic oral toxicity in rodents, fischer, Feed, dose end: 13 week
rat [6] = settings: Combined chronic toxicity/carcinogenicity, sprague dawley, Oral, Feed, dose end: 2 year, group: systemic
rat [7] = settings: Peri- and post-natal toxicity study (Segment III), sprague dawley, Oral, Gavage/Intubation, dose end: 43 PND
mouse [8] = settings: Developmental neurotoxicity study; cd1; Injection; Subcutaneous; dose end: 42 PND; group: cannot be grouped; systemic / in life observation / body weight / offspring (pup) weight
[9] = systemic / pathology microscopic / pituitary gland / adenoma/carcinoma combined + systemic / in life observation / body weight / body weight…
[10] = group: developmental, developmental / developmental malformation / great vessels / [other] + developmental / developmental malformation / bone / fused + …
[11] = group: maternal, reproductive / offspring survival early / litter viability other / total litter loss + systemic / in life observation / body weight / body …
[12] = group: developmental, systemic / in life observation / body weight / fetal weight
[13] = group: maternal, reproductive / reproductive performance / postimplantation loss / postimplantation loss + reproductive / reproductive performance / …
[14] = systemic / organ weight / liver / relative to body weight
[15] = group: maternal, reproductive / reproductive performance / estrous cycle / abnormal
[16] = group: systemic, systemic / hematology / mean corpuscular (cell) volume (mcv) / mean corpuscular (cell) volume (mcv) + systemic / hematology / mean …
[17] = group: systemic, systemic / pathology microscopic / kidney / nephropathy
[18] = systemic / in life observation / body weight / body weight
[19] = systemic / pathology microscopic / preputial gland / atrophy
[20] = group: developmental, developmental / developmental landmark / vaginal opening / vaginal opening
[21] = group: maternal, reproductive / reproductive performance / estrous cycle / [other] + reproductive / reproductive performance / estrous cycle / abnormal
[22] = group: parental, systemic / organ weight / adrenal gland / absolute

For O=c1c(-c2ccc(O)cc2)coc2cc(O)cc(O)c12 [Genistein], the NEL (rat [1]; systemic / organ weight / pituitary gland / absolute + systemic / organ weight / pituitary gland / relative to body weight) was 0.25 mg/kg/day, the LEL (rat [1]; systemic / organ weight / pituitary gland / absolute + systemic / organ weight / pituitary gland / relative to body weight + systemic / …) was 5 mg/kg/day and the LOAEL (rat [1]; [9]) was over 25 mg/kg/day. The NOAEL (rat [1]; [9]) was at least 25 mg/kg/day, the LEL (rat [2]; group: developmental, developmental / developmental malformation / great vessels / [other]) was 150 mg/kg/day and the LOAEL (rat [2]; [10]) was over 1000 mg/kg/day. The NEL (rat [2]; [10]) was 20 mg/kg/day, the NOAEL (rat [2]; [10]) was at least 1000 mg/kg/day and the LEL (rat [2]; [11]) was 1000 mg/kg/day. It also gave an LOAEL (rat [2]; [11]) of over 1000 mg/kg/day, an NEL (rat [2]; [11]) of 150 mg/kg/day and an NOAEL (rat [2]; [11]) of at least 1000 mg/kg/day. It also gave an LEL (rat [3]; [12]) of 500 mg/kg/day, an LOAEL (rat [3]; [12]) of over 500 mg/kg/day and an NEL (rat [3]; [12]) of 100 mg/kg/day. The NOAEL (rat [3]; [12]) was at least 500 mg/kg/day, the LEL (rat [3]; [13]) was 500 mg/kg/day and the LOAEL (rat [3]; [13]) was over 500 mg/kg/day. For the same compound, the NEL (rat [3]; [13]) was 100 mg/kg/day and the NOAEL (rat [3]; [13]) was at least 500 mg/kg/day.

Compound Cc1cccc([N+](=O)[O-])c1 [3-Nitrotoluene] has an LOAEL (mouse [4]; systemic / in life observation / body weight / body weight gain) of 743 mg/kg/day, an NOAEL (mouse [4]; systemic / in life observation / body weight / body weight gain + systemic / in life observation / food consumption / food consumption + …) of 398 mg/kg/day and an LEL (mouse [4]; [14]) of 114 mg/kg/day. The NEL (mouse [4]; [14]) was under 114 mg/kg/day, the LEL (rat [5]; [15]) was 336 mg/kg/day and the LOAEL (rat [5]; [15]) was over 638 mg/kg/day. It also gave an NEL (rat [5]; [15]) of 172 mg/kg/day, an NOAEL (rat [5]; [15]) of at least 638 mg/kg/day and an LOAEL (rat [5]; [16]) of 336 mg/kg/day. The NOAEL (rat [5]; [16]) was 172 mg/kg/day, the LEL (rat [5]; [17]) was 46 mg/kg/day and the NEL (rat [5]; [17]) was under 46 mg/kg/day.

C#C[C@]1(O)CC[C@H]2[C@@H]3CCc4cc(O)ccc4[C@H]3CC[C@@]21C [17alpha-Ethinylestradiol] was tested, and the LEL (rat [6]; [18]) was 0.00012 mg/kg/day, the NEL (rat [6]; [18]) was under 0.00012 mg/kg/day and the LOAEL (rat [6]; [19]) was 0.00021 mg/kg/day. The NOAEL (rat [6]; [19]) was under 0.00021 mg/kg/day, the LEL (rat [7]; [20]) was 0.005 mg/kg/day and the LOAEL (rat [7]; [20]) was over 0.005 mg/kg/day. For the same compound, the NEL (rat [7]; [20]) was 0.0025 mg/kg/day, the NOAEL (rat [7]; [20]) was at least 0.005 mg/kg/day and the LEL (rat [7]; [21]) was 0.005 mg/kg/day. For the same compound, the LOAEL (rat [7]; [21]) was over 0.005 mg/kg/day, the NEL (rat [7]; [21]) was 0.0025 mg/kg/day and the NOAEL (rat [7]; [21]) was at least 0.005 mg/kg/day. It also gave an LEL (rat [7]; [22]) of 0.0025 mg/kg/day, an LOAEL (rat [7]; [22]) of over 0.005 mg/kg/day and an NEL (rat [7]; [22]) of under 0.0025 mg/kg/day. The NOAEL (rat [7]; [22]) was at least 0.005 mg/kg/day.

Work on O=P1(N(CCCl)CCCl)NCCCO1 (configuration not stated) [Cyclophosphamide] yielded an LEL (mouse [8]) of 20 mg/kg/day, an LOAEL (mouse [8]) of over 45 mg/kg/day and an NEL (mouse [8]) of under 20 mg/kg/day. For the same compound, the NOAEL (mouse [8]) was at least 45 mg/kg/day.
